Measured values published in publication PMC10943693, “Evaluation of binding mechanism of dietary phytochemical, capsaicin, with human transferrin: targeting neurodegenerative diseases therapeutics” (Frontiers in Pharmacology, 2024).

Molecular target: T1, Human transferrin (htf) (Homo sapiens, UniProt P02787)
T1 construct: gene TF; commercial protein from Sigma Aldrich
Test: intrinsic fluorescence quenching (excitation […] nm), modified Stern-Volmer plot
Assay type: binding
Settings: 4 µM htf, 0-6 µM capsaicin; inner filter corrected; double-log

T1 sequence (P02787 20-698): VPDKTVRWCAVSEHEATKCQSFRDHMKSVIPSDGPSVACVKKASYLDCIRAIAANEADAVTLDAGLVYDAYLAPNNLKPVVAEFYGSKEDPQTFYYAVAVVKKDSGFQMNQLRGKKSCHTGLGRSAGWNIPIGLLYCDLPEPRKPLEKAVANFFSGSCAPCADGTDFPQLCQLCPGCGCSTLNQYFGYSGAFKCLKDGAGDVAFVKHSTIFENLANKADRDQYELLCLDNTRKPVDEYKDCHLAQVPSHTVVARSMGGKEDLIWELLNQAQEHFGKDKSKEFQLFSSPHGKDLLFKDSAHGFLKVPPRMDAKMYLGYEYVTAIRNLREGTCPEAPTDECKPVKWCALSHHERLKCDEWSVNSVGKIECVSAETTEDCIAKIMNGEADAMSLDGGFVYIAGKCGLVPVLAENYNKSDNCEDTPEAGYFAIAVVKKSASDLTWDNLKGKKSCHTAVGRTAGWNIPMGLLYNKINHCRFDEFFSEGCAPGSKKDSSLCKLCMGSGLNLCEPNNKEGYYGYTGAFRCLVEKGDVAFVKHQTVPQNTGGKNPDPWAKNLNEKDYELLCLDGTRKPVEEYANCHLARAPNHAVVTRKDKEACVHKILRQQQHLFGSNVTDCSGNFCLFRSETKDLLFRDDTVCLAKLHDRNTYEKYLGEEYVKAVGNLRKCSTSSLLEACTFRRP

COc1cc(CNC(=O)CCCC/C=C/C(C)C)ccc1O [capsaicin, 8-methyl-N-vanillyl-6-nonenamide]
K: 3.99e+06 M⁻¹
